Experimental data: patent US12673039B2, “Methods of inducing autophagy using coumarin derivatives and related compounds” (Buck Institute for Research on Aging, priority 2019, dated 2026)

Molecular target: T1, DAF-12 (Caenorhabditis elegans, UniProt G5EFF5)
T1 construct: expressed in transfected cells; host or cells: HEK293T
T1 sequence (G5EFF5 516-753 limits assumed): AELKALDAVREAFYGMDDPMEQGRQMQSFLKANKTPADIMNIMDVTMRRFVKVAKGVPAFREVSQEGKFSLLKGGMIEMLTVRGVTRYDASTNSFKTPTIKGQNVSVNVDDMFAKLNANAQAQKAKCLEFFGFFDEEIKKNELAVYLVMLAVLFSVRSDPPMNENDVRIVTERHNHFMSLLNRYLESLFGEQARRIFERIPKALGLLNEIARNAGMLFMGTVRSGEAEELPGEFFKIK
Experiment: Mammalian one-hybrid DAF-12 activity assay (HEK293T)
Format: cell-based, human
Method: FIG. 10 illustrates that coumarin 106 (“C1”, “AIC106”) inhibits induction of the worm FXR homologue DAF-12. The ability of C1 (10 μM) to inhibit activation of the FXR worm homologue DAF-12 by its ligand dafachronic acid (Df acid); values are fold activity induction versus untreated controls; ****p<0.01 versus GW; **p<0.05 versus GW.
FIG. 22, panels A-H: AIC106-induced HLH-30 expression is mediated by the nuclear hormone receptor DAF-12. Panel A) The upstream promoter region (2 kB) of hlh-30 was analyzed by JASPAR CORE database to determine DAF-12 binding sites (1: SEQ ID NO:1, 2: 1: SEQ ID NO:2, 3: SEQ ID NO:3, 4: SEQ ID NO:4, 5: SEQ ID NO:5, 6: SEQ ID NO:6, 7: SEQ ID NO:7, 8: SEQ ID NO:8, 9: SEQ ID NO:9, 10: SEQ ID NO:10, 11: SEQ ID NO:11, 12: SEQ ID NO:12). Panel B) Relative fold change in mRNA of hlh-30 compared to DMSO-control was quantified using qRT-PCR in young adult wild-type N2 and daf-12(rh61rh411) worms post-24 hours treatment with AIC106. [N=3 independent experiments (mean±SD). **p<0.01, by one-way ANOVA with Sidak's multiple comparisons test]. Panel C) Effects of AIC106 on DAF-12 activity was determined in a mammalian one-hybrid assay by quantifying changes in the luciferase activity of DAF-12 ligand (dafachronic acid, DA) induced treatment. [N=3 independent experiments (mean±SD). *p<0.05 **p<0.01 and ***p<0.001, by one-way ANOVA with Tukey's multiple comparisons test]. Panel D) Schematic diagram showing that addition of AIC106 or inhibition of DAF-12 ligand synthesis, which leads to un-liganded DAF-12 may result in enhanced HLH-30 expression. Panel E) Dafadine-A (DFA), a specific inhibitor of key enzyme required for synthesis of DAF-12 ligand induces HLH-30 expression. Immunoblot for GFP was performed on protein lysate of HLH-30; GFP (MAH235) young adult worms treated with DFA or DMSO-control for 24 hours. Panel F) Protection against mitochondrial toxin (FCCP) was determined by quantifying survival of young adult worms treated 24 hours with DFA or DMSO-control. [N=3 independent experiments (mean±SD). **p<0.01, by two-way ANOVA with Tukey's multiple comparisons test]. Panel G) Motor function in day-7 NL5901 worms were quantified by scoring number of thrashes for an individual worm over the period of 30 seconds (dots) in DFA and DMSO-control treatment. [N=3 independent experiments (mean±SD). **p<0.01, by unpaired t-test] […] [N=3 independent experiments (mean±SD). *p<0.05, by one-way ANOVA with Tukey's multiple comparisons test].
FIG. 29, panels A-C: AIC106 modulates DAF-12 activity. […] Luciferase activity was measured to quantify DAF-12 activity. Panel C) Dose dependent increase in DAF-12 activity after treatment with known DAF-12 ligand, dafachronic acid (DA) was determined by quantifying luciferase activity. […]

O=c1oc2c3c4c(cc2c2c1CCC2)CCCN4CCC3 [C1, 2,3,6,7,10,11-Hexahydro-1H,5H-cyclopenta(3,4)(1)benzopyrano(6,7,8-ij)quinolizin-12(9H)-one]
activation of DAF-12 elicited by dafachronic acid (C1 10 μM (FIG. 10)): inhibit activation of the FXR homologue DAF-12
DAF-12 activity (luciferase) (compound alone): did not increase DAF-12 activity
DA-induced DAF-12 activity (in combination with dafachronic acid): dose-dependent suppression of DA-induced DAF-12 activity
